# Measurements from the supplement of paper PMC12420376.
# How the values were obtained:
# KURAMOCHI = test: drug sensitivity score (DSS2) on cancer cell count; higher = more sensitive; extreme values may be limits of the assay; conditions: 72 h
# Procedure, shortened: (§1)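 Cancer cell counts came from 10× images (4 fields) of fixed cells immunostained for CK8/18 with Hoechst. The ovarian cancer cells had been grown alone or in 1:1 direct co-culture with lung or skin fibroblasts on 384-well plates pre-spotted acoustically with 528 approved and investigational compounds at 5 concentrations, then treated for 72 h. Breeze was used to derive a drug sensitivity score from logistic fits of the data.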
# OVCAR8 = test: as above; conditions: 72 h
# Procedure, shortened: as §1
# [1] = co-cultured fibroblast: BJHTERT
# [2] = co-cultured fibroblast: none (monoculture)
Structure (SMILES),drug sensitivity score (KURAMOCHI; [1]) [DSS],drug sensitivity score (KURAMOCHI; co-cultured fibroblast: WI38) [DSS],drug sensitivity score (KURAMOCHI; [2]) [DSS],drug sensitivity score (OVCAR8; [1]) [DSS],drug sensitivity score (OVCAR8; co-cultured fibroblast: WI38) [DSS],drug sensitivity score (OVCAR8; [2]) [DSS]
Cn1c(Nc2ccc(C(F)(F)F)cc2)nc2cc(Oc3ccnc(-c4ncc(C(F)(F)F)[nH]4)c3)ccc21 [NVP-RAF265],2.2,0.8,7.6,2.2,0,3.2
N#Cc1ccc2[nH]c(O)c(-c3ccc(CN4CCOCC4)cn3)c2c1 [AZD-1080],0,0,0,0.1,0,0
CNC(=O)c1ccccc1Nc1cc(Nc2ccc(N3CCOCC3)cc2OC)ncc1C(F)(F)F [VS-4718],9,7.9,14.2,6.7,3.5,8.5
CC(C)c1cc(C(=O)N2Cc3ccc(CN4CCN(C)CC4)cc3C2)c(O)cc1O [Onalespib],13,14.6,14.9,17.4,18.5,23.5
CC1(C)NC(=O)N(c2ccc([N+](=O)[O-])c(C(F)(F)F)c2)C1=O [Nilutamide],0,3.2,14.5,0,0,0
CC(C)(O)CC(=O)NCCn1ccc2ncnc(Nc3ccc(Oc4cccc(C(F)(F)F)c4)c(Cl)c3)c21 [TAK-285],5.2,1.6,0.6,0.2,0,1.2
C[C@]12C=CC(=O)C=C1CC[C@@H]1[C@@H]2[C@@H](O)C[C@@]2(C)[C@H]1CC[C@]2(O)C(=O)CO [Prednisolone],0,0,0,0.3,0,0
Cc1cc2c(F)c(Oc3ncnn4cc(OC[C@@H](C)O)c(C)c34)ccc2[nH]1 [Brivanib],0,0,0,0,0,0
CO[C@H]1C[C@@H]2CC[C@@H](C)[C@@](O)(O2)C(=O)C(=O)N2CCCC[C@H]2C(=O)O[C@H]([C@H](C)C[C@@H]2CC[C@@H](OCCO)[C@H](OC)C2)CC(=O)[C@H](C)/C=C(\C)[C@@H](O)[C@@H](OC)C(=O)[C@H](C)C[C@H](C)/C=C/C=C/C=C/1C [Everolimus],5.6,5.6,0,8.4,0,2.2
Cc1nn(C)c(COc2ccc(N3CCN(S(=O)(=O)N(C)C)CC3)cc2)c1-c1cccc2c(CCCOc3cccc4ccccc34)c(C(=O)O)n(CCN3CCOCC3)c12,5.7,8.5,10.3,4.7,4,8.2
N#CCNC(=O)c1ccc(-c2ccnc(Nc3ccc(N4CCOCC4)cc3)n2)cc1 [Momelotinib],7.5,10.1,7.6,11.3,10.9,10.1
CO[C@@H](C)Cn1c(=O)n(C)c2cnc3ccc(-c4cncc(C(C)(C)O)c4)cc3c21,11.9,10.9,9.2,9.6,9.6,9.8
C=CC(=O)Nc1cccc(Nc2nc(Nc3ccc(OCCOC)cc3)ncc2F)c1 [Spebrutinib],0,0,0,0,0,0
CNC(=O)c1cccc2cc(Oc3ccnc4cc(OCC5(N)CC5)c(OC)cc34)ccc12 [Lucitanib],4.3,4.3,2.4,3.3,6,3.4
CO[C@@H]1[C@H](N(C)C(=O)c2ccccc2)C[C@H]2O[C@]1(C)n1c3ccccc3c3c4c(c5c6ccccc6n2c5c31)C(=O)NC4 [Midostaurin],16.2,14.8,11.6,13.3,16.5,13
Nc1nc2cc(-c3ccc4ncc(C(=O)N5CCOCC5)n4c3)ccc2o1 [Serabelisib],3.3,0.4,3.1,0.8,0,0
O=C1NC(=O)[C@@H](c2cn3c4c(cccc24)CCC3)[C@@H]1c1c[nH]c2ccccc12 [Tivantinib],5.4,5.9,14,4,6.4,3.8
CN(C)C(=O)c1cc2cnc(Nc3ccc(N4CCNCC4)cn3)nc2n1C1CCCC1 [Ribociclib],0,3.9,5.2,3.9,0,0
c1cn2cc(-c3ccc4cn[nH]c4c3)nc(Nc3ccc(N4CCOCC4)cc3)c2n1 [Entospletinib],0,1.4,0,1.2,0,0
